# Results as given in patent US5595756A, “Liposomal compositions for enhanced retention of bioactive agents” (Inex Pharmaceuticals Corporation, priority 1993, dated 1997).
# How the values were obtained:
# [1] = Drug induced weight change in P388-bearing mice (% wt change on day 7); assay type: in vivo, BDF1 mice; conditions: i.v.
# Source text: Animal weights and mortality were monitored daily.
# [2] = system: P388 lymphocytic leukemia; assay: P388 antitumor activity (murine lymphocytic leukemia model), free and liposomal vincristine i.v.; conditions: for Median Survival / 60-day Survival: i.v.; for Median Survival: saline control 10.0; for 60-day Survival: survivors/total; for % ILS (increase in life span): from median survival, treated vs saline control
# Procedure: The antitumor effects of liposomal vincristine were monitored using the P388 lymphocytic leukemia model. BDF1 mice (5 per group) were injected i.p. with 1×10^6 P388 cells. The indicated doses of saline or liposomal vincristine were administered (i.v.) 24 h after tumor inoculation. Animal weights and mortality were monitored daily. Mean and median survival times as well as the statistical significance of the results were determined using the Mann-Whitney-Wilcoxon procedure.
# Murine P388 antitumor activity of the DSPC/Chol/GM1 pH 2 liposomal vincristine preparation was compared to free drug and DSPC/Chol pH 4 liposomal vincristine (Table I below).
# [3] = drug dose 1.0 mg/kg, lipid dose 10 mg/kg
# [4] = drug dose 2.0 mg/kg, lipid dose 20 mg/kg
# [5] = drug dose 3.0 mg/kg, lipid dose 30 mg/kg
smiles,measurement,setting,value
CC[C@]1(O)C[C@H]2CN(CCc3c([nH]c4ccccc34)[C@@](C(=O)OC)(c3cc4c(cc3OC)N(C=O)[C@H]3[C@@](O)(C(=O)OC)[C@H](OC(C)=O)[C@]5(CC)C=CCN6CC[C@]43[C@@H]65)C2)C1 [Free Vincristine],% wt change on day 7,[1]; [3],+1.9%
same,% wt change on day 7,[1]; [4],+0.5%
same,% wt change on day 7,[1]; [5],-13.4%
same,Median Survival,[2]; [3],14.0 days
same,60-day Survival,[2]; [3],0/5
same,% ILS (increase in life span),[2]; drug dose 1.0 mg/kg,40%
same,Median Survival,[2]; [4],15.0 days
same,60-day Survival,[2]; [4],0/5
same,% ILS (increase in life span),[2]; drug dose 2.0 mg/kg,50%
same,Median Survival,[2]; [5],16.0 days
same,60-day Survival,[2]; [5],0/5
same,% ILS (increase in life span),[2]; drug dose 3.0 mg/kg,60%
same,long-term survivors,[2]; long-term = >70 days,No long-term survivors
